# Reference: patent US10196421B2, “Nucleophile-reactive sulfonated compounds for the (radio)labelling of (bio)molecules; precursors and conjugates thereof” (Advanced Accelerator Applications SA, priority 2012, dated 2019)
# Test: solubility of Cy 5.5 before and after conjugation with the sulfonated prosthetic compound
# Type: physicochemical
# Conditions: unconjugated precursor
# Text: This fact confirms that the present invention enables to increase the hydrophilic character of the (bio)molecules conjugated therewith.
substance,measurement,value
Cy 5.5,solubility in water,water insoluble
